Source: patent US7759331B2, “Pyridine-containing macroheterococylic compounds as kinase inhibitors” (Janssen Pharmaceutica NV, priority 2006, dated 2010)
Values joined by “and” are separate entries in the source; they are usually repeats but may differ in a detail not shown here. Identical values can stand only once.

Legend:
CaMKII(r) = experiment: Protein kinase selectivity panel; format: biochemical, rat; settings: 1.0 μM compound, 10 μM ATP
Protocol: (§1) Protein kinase selectivity assays were performed as described in the scientific literature (Davies, S. P., et al., Biochem. J. 2000, 351, 95-105). Briefly, protein kinases were assayed for their ability to phosphorylate the appropriate peptide/protein substrates in the presence of 1.0 μM compound. Assays were done using 10 μM ATP and were linear with respect to time. The protein kinase selectivity assays were performed by Upstate Cell Signaling Solutions using Upstate's KinaseProfiler™ Selectivity Screening Service.

AMPK(r) = experiment: Protein kinase selectivity panel; format: biochemical, rat; settings: 1.0 μM compound, 10 μM ATP
Protocol: as §1

GSK3β(h) = GSK3β(h) (Homo sapiens, UniProt P49841); experiment: Glycogen Synthase Kinase-3 Assay; format: biochemical; settings: assay run three times for each compound; each run's value listed
Protocol: Compounds were tested for the ability to inhibit GSK-3β protein. Briefly, in a final reaction volume of 25 μL, GSK-3β (h) (5-10 mU) was incubated with 8 mM MOPS pH 7.0, 0.2 mM EDTA, 20 μM […](p)EDEEE (phospho GS2 peptide), 10 mM Mg Acetate and [γ-^33P-ATP] (specific activity approx. 500 cpm/pmol, concentration as required). The reaction was initiated by the addition of the MgATP mix. After incubation for 40 minutes at room temperature, the reaction was stopped by the addition of 5 μL of a 3% phosphoric acid solution. 10 μL of the reaction was then spotted onto a P30 filtermat and washed three times for 5 minutes in 50 mM phosphoric acid and once in methanol prior to drying and scintillation counting.
The GSK-3β assay was run three times for each compound.

PKCα(h) = PKCα(h) (Homo sapiens, UniProt P17252); experiment: Protein kinase selectivity panel; format: biochemical; settings: 1.0 μM compound, 10 μM ATP
Protocol: as §1

PKBγ(h) = PKBγ(h) (Homo sapiens, UniProt Q9Y243); experiment: Protein kinase selectivity panel; format: biochemical; settings: 1.0 μM compound, 10 μM ATP
Protocol: as §1

PKCγ(h) = PKCγ(h) (Homo sapiens, UniProt P05129); experiment: Protein kinase selectivity panel; format: biochemical; settings: 1.0 μM compound, 10 μM ATP
Protocol: as §1

Abl(h) = Abl(h) (Homo sapiens, UniProt P00519); experiment: Protein kinase selectivity panel; format: biochemical; settings: 1.0 μM compound, 10 μM ATP
Protocol: as §1

PKCθ(h) = PKCθ(h) (Homo sapiens, UniProt Q04759); experiment: Protein kinase selectivity panel; format: biochemical; settings: 1.0 μM compound, 10 μM ATP
Protocol: as §1

c-RAF(h) = c-RAF(h) (Homo sapiens, UniProt P04049); experiment: Protein kinase selectivity panel; format: biochemical; settings: 1.0 μM compound, 10 μM ATP
Protocol: as §1

CK2(h) = CK2(h) (Homo sapiens, UniProt P68400); experiment: Protein kinase selectivity panel; format: biochemical; settings: 1.0 μM compound, 10 μM ATP
Protocol: as §1

EphB2(h) = target: T1, EphB2(h) (Homo sapiens, UniProt P29323); experiment: Protein kinase selectivity panel; format: biochemical; settings: 1.0 μM compound, 10 μM ATP
T1 sequence (P29323 19-1055): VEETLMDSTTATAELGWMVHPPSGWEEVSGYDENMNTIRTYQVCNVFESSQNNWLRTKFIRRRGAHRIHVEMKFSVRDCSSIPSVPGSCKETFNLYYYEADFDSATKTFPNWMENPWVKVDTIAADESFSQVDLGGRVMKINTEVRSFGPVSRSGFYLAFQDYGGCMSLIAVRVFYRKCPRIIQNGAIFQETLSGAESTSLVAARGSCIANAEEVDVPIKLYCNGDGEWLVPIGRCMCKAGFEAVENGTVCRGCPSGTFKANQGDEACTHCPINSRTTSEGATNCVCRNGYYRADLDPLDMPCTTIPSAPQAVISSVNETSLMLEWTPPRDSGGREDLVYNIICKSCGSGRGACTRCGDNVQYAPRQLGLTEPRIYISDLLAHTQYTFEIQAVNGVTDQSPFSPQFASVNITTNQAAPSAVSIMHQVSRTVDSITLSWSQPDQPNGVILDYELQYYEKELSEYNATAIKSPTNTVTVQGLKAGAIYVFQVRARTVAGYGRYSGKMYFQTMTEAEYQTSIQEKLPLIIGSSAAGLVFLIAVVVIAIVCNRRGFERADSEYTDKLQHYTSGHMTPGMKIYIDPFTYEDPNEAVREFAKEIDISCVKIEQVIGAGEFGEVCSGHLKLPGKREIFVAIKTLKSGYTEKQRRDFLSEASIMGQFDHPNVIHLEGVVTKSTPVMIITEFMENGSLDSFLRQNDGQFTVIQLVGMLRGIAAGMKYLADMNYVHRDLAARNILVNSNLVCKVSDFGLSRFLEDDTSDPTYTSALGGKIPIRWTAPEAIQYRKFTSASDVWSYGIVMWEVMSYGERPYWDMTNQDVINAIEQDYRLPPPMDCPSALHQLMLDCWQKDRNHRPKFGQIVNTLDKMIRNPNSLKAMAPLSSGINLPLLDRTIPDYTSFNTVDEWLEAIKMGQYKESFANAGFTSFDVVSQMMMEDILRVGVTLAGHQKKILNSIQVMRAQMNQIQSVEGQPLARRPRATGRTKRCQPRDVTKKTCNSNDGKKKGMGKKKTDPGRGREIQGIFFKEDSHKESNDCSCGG
Protocol: as §1

Yes(h) = target: T2, Yes(h) (Homo sapiens, UniProt P07947); experiment: Protein kinase selectivity panel; format: biochemical; settings: 1.0 μM compound, 10 μM ATP
T2 construct: purchased Upstate Cell Signaling Solutions (KinaseProfiler Selectivity Screening Service)
Protocol: as §1

Rsk1(h) = Rsk1(h) (Homo sapiens, UniProt Q15418); experiment: Protein kinase selectivity panel; format: biochemical; settings: 1.0 μM compound, 10 μM ATP
Protocol: as §1

Aurora-A(h) = target: T3, Aurora-A(h) (Homo sapiens, UniProt O14965); experiment: Protein kinase selectivity panel; format: biochemical; settings: 1.0 μM compound, 10 μM ATP
T3 sequence (O14965 1-403): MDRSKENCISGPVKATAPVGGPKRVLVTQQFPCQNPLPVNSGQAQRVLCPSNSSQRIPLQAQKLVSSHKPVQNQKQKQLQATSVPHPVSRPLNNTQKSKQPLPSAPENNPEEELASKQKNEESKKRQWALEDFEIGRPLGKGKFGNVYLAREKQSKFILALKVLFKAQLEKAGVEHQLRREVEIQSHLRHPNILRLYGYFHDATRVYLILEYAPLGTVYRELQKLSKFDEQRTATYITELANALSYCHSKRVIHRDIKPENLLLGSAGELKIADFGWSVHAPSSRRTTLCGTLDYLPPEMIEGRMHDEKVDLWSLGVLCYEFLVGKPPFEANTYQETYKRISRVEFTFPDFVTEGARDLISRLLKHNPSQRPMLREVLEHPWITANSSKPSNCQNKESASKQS
Protocol: as §1

PAK2(h) = PAK2(h) (Homo sapiens, UniProt Q13177); experiment: Protein kinase selectivity panel; format: biochemical; settings: 1.0 μM compound, 10 μM ATP
Protocol: as §1

CK1(y) = experiment: Protein kinase selectivity panel; format: biochemical, yeast; settings: 1.0 μM compound, 10 μM ATP
Protocol: as §1

p70S6K(h) = experiment: Protein kinase selectivity panel; format: biochemical, human; settings: 1.0 μM compound, 10 μM ATP
Protocol: as §1

Sequence of GSK3β(h) (P49841 whole entry): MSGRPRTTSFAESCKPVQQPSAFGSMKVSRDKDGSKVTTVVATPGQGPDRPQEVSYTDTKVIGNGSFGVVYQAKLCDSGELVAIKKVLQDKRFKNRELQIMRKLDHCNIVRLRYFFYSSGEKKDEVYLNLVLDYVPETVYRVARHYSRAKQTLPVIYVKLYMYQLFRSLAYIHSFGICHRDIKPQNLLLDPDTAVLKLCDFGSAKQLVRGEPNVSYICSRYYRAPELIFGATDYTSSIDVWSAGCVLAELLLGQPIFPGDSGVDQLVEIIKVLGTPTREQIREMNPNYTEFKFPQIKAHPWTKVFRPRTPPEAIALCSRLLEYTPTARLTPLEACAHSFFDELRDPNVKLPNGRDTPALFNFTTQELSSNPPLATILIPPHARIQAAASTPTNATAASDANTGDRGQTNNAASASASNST
Sequence of Rsk1(h) (Q15418 whole entry): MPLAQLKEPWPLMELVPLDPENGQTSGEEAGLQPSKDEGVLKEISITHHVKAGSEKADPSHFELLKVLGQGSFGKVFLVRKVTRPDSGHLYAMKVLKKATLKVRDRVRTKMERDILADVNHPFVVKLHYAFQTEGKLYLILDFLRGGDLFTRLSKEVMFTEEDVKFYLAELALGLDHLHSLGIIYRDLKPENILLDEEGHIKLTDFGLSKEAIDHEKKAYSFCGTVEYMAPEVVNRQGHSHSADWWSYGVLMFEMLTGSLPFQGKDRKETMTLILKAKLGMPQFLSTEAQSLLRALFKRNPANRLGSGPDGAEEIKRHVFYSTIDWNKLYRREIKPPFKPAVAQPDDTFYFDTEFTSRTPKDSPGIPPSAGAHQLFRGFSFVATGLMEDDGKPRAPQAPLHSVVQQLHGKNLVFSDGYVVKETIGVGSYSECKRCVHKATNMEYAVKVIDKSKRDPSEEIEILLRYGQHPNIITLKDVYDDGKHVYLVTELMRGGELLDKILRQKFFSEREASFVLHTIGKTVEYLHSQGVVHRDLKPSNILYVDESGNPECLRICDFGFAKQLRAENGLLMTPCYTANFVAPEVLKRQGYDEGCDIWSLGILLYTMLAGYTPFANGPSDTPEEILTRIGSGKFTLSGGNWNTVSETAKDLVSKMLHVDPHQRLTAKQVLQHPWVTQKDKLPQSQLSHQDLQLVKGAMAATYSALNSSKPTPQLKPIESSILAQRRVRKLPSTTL
Sequence of PKCθ(h) (Q04759 whole entry): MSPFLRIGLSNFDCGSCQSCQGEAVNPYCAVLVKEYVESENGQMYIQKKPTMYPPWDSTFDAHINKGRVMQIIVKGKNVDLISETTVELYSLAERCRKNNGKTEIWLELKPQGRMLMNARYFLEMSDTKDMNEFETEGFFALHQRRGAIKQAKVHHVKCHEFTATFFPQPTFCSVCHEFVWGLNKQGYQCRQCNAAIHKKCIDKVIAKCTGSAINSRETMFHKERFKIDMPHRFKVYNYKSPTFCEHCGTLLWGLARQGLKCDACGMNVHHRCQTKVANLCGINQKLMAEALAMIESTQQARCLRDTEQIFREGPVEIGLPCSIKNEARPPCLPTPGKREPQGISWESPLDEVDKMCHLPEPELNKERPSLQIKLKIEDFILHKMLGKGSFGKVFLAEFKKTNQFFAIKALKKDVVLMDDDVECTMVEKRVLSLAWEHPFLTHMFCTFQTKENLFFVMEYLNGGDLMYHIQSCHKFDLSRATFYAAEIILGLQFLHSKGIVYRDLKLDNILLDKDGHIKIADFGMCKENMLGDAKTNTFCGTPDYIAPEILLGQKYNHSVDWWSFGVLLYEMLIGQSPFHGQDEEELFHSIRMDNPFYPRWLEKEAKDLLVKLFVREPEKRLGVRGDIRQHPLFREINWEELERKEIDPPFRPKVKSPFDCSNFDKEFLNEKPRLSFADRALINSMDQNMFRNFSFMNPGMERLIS
Sequence of CK2(h) (P68400 whole entry): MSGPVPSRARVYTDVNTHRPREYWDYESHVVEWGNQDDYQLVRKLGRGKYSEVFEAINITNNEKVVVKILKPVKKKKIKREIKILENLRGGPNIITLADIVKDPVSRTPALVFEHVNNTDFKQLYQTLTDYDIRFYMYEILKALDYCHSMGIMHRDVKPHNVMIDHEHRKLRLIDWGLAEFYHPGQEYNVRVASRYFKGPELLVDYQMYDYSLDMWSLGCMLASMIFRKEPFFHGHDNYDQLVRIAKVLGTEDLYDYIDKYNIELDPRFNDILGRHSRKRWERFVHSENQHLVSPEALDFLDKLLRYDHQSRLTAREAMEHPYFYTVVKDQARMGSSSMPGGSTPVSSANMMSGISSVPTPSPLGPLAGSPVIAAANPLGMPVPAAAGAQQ
Sequence of CK2(h) (P67870 whole entry partner): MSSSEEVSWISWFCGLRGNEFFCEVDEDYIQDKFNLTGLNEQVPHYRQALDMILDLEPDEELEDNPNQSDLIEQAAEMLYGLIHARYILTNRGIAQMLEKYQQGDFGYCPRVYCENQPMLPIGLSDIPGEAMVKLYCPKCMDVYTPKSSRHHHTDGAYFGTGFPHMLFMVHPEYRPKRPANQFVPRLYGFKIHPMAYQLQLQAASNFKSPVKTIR
Sequence of Abl(h) (P00519 whole entry): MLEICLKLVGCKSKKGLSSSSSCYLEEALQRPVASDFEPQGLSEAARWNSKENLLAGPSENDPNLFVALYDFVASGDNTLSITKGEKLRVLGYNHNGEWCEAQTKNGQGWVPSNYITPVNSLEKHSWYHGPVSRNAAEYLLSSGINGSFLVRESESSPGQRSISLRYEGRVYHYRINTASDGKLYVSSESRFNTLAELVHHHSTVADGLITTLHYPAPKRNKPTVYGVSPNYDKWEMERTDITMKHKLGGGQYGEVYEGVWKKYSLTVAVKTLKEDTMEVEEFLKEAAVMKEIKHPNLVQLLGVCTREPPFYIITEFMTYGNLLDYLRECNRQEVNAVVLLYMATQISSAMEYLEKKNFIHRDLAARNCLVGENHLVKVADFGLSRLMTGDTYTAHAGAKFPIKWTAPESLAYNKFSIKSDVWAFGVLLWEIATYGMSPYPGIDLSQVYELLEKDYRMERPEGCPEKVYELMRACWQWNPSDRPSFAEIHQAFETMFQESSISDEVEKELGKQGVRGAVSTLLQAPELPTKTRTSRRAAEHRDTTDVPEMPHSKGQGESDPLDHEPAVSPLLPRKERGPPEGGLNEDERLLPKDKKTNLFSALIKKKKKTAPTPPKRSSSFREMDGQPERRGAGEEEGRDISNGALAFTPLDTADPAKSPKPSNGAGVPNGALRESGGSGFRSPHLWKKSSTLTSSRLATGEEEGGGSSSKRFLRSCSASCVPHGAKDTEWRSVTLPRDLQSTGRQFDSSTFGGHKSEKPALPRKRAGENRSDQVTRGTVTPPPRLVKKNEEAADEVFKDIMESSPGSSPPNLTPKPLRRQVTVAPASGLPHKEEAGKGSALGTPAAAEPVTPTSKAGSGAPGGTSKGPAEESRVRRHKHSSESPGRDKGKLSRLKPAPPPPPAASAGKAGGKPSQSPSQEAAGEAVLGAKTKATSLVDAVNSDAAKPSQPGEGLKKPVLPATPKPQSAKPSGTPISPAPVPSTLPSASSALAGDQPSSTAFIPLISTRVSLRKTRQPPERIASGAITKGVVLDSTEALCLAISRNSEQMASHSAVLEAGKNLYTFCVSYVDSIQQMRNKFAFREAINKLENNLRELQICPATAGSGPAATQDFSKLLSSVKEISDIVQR

## O=C1NC(=O)C2=C1c1cn(c3ccccc13)CCCc1ccc(c(N3CCCC3)n1)CCCn1cc2c2ccccc21 [Cpd 7, 31-pyrrolidin-1-yl-5,15,25,30-tetraazaheptacyclo[27.2.2.1^5,12.1^18,25.0^6,11.0^13,17.0^19,24]pentatriaconta-1(31),6,8,10,12(35),13(17),18(34),19,21,23,29,32-dodecaene-14,16-dione]
CaMKII(r)
  Activity at Protein Kinase Assays (% of control), CaMKII(r): 98 % of control
AMPK(r)
  Activity at Protein Kinase Assays (% of control), AMPK(r): 99 % of control
GSK3β(h)
  IC50: 0.058 µM and 0.0129 µM and 0.0193 µM
PKCα(h)
  Activity at Protein Kinase Assays (% of control), PKCα(h): 83 % of control
PKBγ(h)
  Activity at Protein Kinase Assays (% of control), PKBγ(h): 105 % of control
PKCγ(h)
  Activity at Protein Kinase Assays (% of control), PKCγ(h): 102 % of control
Abl(h)
  Activity at Protein Kinase Assays (% of control), Abl(h): 108 % of control
PKCθ(h)
  Activity at Protein Kinase Assays (% of control), PKCθ(h): 33 % of control
c-RAF(h)
  Activity at Protein Kinase Assays (% of control), c-RAF(h): 85 % of control
CK2(h)
  Activity at Protein Kinase Assays (% of control), CK2(h): 113 % of control
EphB2(h)
  Activity at Protein Kinase Assays (% of control), EphB2(h): 114 % of control
Yes(h)
  Activity at Protein Kinase Assays (% of control), Yes(h): 43 % of control
Rsk1(h)
  Activity at Protein Kinase Assays (% of control), Rsk1(h): 85 % of control
Aurora-A(h)
  Activity at Protein Kinase Assays (% of control), Aurora-A(h): 106 % of control
PAK2(h)
  Activity at Protein Kinase Assays (% of control), PAK2(h): 102 % of control
CK1(y)
  Activity at Protein Kinase Assays (% of control), CK1(y): 98 % of control
p70S6K(h)
  Activity at Protein Kinase Assays (% of control), p70S6K(h): 84 % of control
